Data as given in US7332479B2, “Extracellular NAD+ and cADPR as potent anti-inflammatory agents” (University of Pittsburgh - of the Commonwealth System of …, priority 2003, dated 2008).

Columns and labels:
[1] = test system: NF-κB; assay: NF-κB DNA binding by electrophoretic mobility shift assay, Caco-2 cells exposed to cytomix; type: cell-based, human
Procedure: Electrophoretic mobility shift assay (EMSA). Nuclear extracts were prepared and analyzed as described.^23 However, 38.3 μL of 10% NP-40 was used to lyse the cells, the nuclei were isolated by centrifugation at 310 g for 3 min, and the nuclear pellets were resuspended in 80 μL of Buffer II.
iNOS induction is dependent, in part, on activation of the transcription factor NF-κB, a transcription factor that is required for a variety of monocyte inflammatory responses, e.g., to LPS. Therefore, we tested the ability of NAD^+ to inhibit DNA binding by NF-κB in Caco-2 cells exposed to cytomix. […] NAD^+ alone had no effect on the nuclear levels of NF-κB.

[2] = test system: Caco-2 human enterocyte-like cells; assay: Paracellular permeability of Caco-2 monolayers, apical-to-basolateral clearance of FD4, cytomix; type: cell-based
Procedure: Cell Culture. Caco-2 human enterocyte-like cells were routinely maintained at 37° C. in DMEM with 10% FBS, as described by Han et al. ^9 All cells were fed by changing the cell culture medium twice per week. For experiments, cells were grown on Transwell inserts (0.4 μm pore size; Corning Costar Corp., Cambridge, Mass.) and used 14-17 days post-confluence. […] Caco-2 monolayers growing on permeable supports were left untreated or exposed to cytomix for 24 or 48 h in the absence or presence of graded concentrations of NAD^+ or adenosine. Paracellular permeability was determined by measuring the apical-to-basolateral flux of FD4. Epithelial permeability was unaffected when monolayers were incubated with NAD^+ alone. Exposing Caco-2 cells to cytomix increased the clearance of FD4 across the monolayers (FIG. 1A). Addition of NAD^+ ameliorated cytomix-induced epithelial hyperpermeability in a concentration-dependent manner. […] NAD^+ is structurally related to a nucleoside, adenosine, that is known to exert anti-inflammatory effects by binding to certain purinergic receptors;^24 accordingly, the possibility that activation of a receptor for adenosine was responsible for the amelioration of cytokine-induced hyperpermeability by NAD^+ was considered. To investigate this idea, Caco-2 monolayers were exposed to cytomix in the absence or presence of 10 μmol/L adenosine (FIG. 1A).

[3] = test system: TNF-α; assay: LPS-induced TNF-α release from RAW cells, ELISA; type: cell-based, mouse; conditions: 1 μM
Procedure: Whether NAD^+ could prevent the production of tumor necrosis factor α (TNF-α), a potent proinflammatory cytokine produced by activated monocytes and macrophages, was tested. Supernatants were collected from RAW cells treated with LPS in the absence or presence of NAD^+. TNF-α levels were quantitated by ELISA.

[4] = test system: mouse ileal mucosa; assay: Ileal mucosal permeability to FD4 (ex vivo everted gut sac) in LPS-injected mice; conditions: LPS 17 mg/kg IP, two 132 mg/kg doses (IV then IP 12 h later), ileum at 18 h
Procedure: Animals. This research complied with regulations regarding animal care as published by the National Institutes of Health and was approved by the Institutional Animal Use and Care Committee of the University of Pittsburgh. Male 7-8 week old C57Bl/6J mice weighing 20-25 g were from Jackson Laboratories (Bar Harbor, Me.). To induce a systemic inflammatory response, mice were injected intraperitoneally (IP) with Escherichia coli (strain O111:B4) LPS (17 mg/kg) dissolved in 1.0 ml of PBS. Control animals were injected with a similar volume of PBS. Some mice were treated with an intravenous (IV) injection (100 μL) of either PBS or 132 mg/kg NAD^+ in PBS given 5 min before LPS or PBS injection, and this injection was repeated IP 12 h later. Groups of mice were anesthetized with 60-90 mg/kg sodium pentobarbital 18 h after the first injection with PBS or LPS. Segments of ileum were harvested to assess mucosal permeability to FD4 using an ex vivo everted gut sac method as previously described.^20
In the setting of systemic inflammation, circulating blood monocytes often encounter lipopolysaccharide (LPS), a potent inflammatory molecule derived from the outer surface of Gram-negative bacteria. […]

[5] = test system: NF-κB; assay: Nuclear NF-κB levels by electrophoretic mobility shift assay, LPS-stimulated RAW 264.7 cells; type: cell-based, mouse; conditions: 10 ng/ml LPS, 15 min
Procedure: Additional studies were performed to show the potent anti-inflammatory capacity of extracellular NAD^+. RAW 264.7 cells in tissue culture dishes were stimulated with LPS prepared from Escherichia coli strain 011:B4, and the activation of NF-κB was measured. Some cells were exposed to 10 ng/ml LPS in the presence of 1-100 μM NAD. Nuclear proteins were extracted from the cells 15 min after exposure to the compounds, and NF-κB levels were determined using the electrophoretic mobility shift assay.
Thus, very low doses of extracellular NAD^+ can effectively block the activation of NF-κB, an important transcription factor mobilized during an inflammatory response.

[6] = test system: mice challenged with a lethal dose of Escherichia coli O111:B4 LPS; assay: LPS-induced mortality in mice; type: in vivo; conditions: LPS 17 mg/kg; intravenous and intraperitoneal, 1 mg/kg pre-treatment then 1 mg/kg every 6 h for five more doses
[7] = test system: Caco-2 cells; assay: Immunofluorescence microscopy of ZO-1 and occludin localization in Caco-2 cells exposed to cytomix; type: cell-based, human; conditions: cytomix 48 h, 10 μmol/L added at 0 and 24 h
Procedure: Immunofluorescence. All procedures were performed at 0-4° C. as described.^9 Caco-2 cells growing on 24 well clear Transwell inserts were fixed and stained with a mouse anti-ZO-1 monoclonal antibody (mAb; BD Translabs, Franklin Lakes, N.J.) and rabbit an anti-occludin polyclonal antibody diluted 1:100. The secondary antibodies were 5 μg/mL FITC-conjugated affinity-purified donkey anti-mouse IgG and 15 μg/mL TRITC-conjugated affinity-purified goat anti-rabbit IgG (Jackson ImmunoResearch Laboratories).
Immunofluorescence microscopy was used to assess the structure of TJs in Caco-2 cells grown on Transwells. The cells were either left untreated (FIG. 3; Panel CON) or exposed to cytomix for 48 h in the absence (Panel C48) or presence (Panel N10) of extracellular NAD^+ (10 μmol/L added at 0 and 24 h). The cells were permeabilized, fixed, and stained using FITC- and TRITC-conjugated antibodies directed against ZO-1 and occludin, respectively. In control confluent Caco-2 monolayers, these proteins both were predominantly localized to regions near cell-cell boundaries. Staining was even and continuous. Following treatment with cytomix, dispersed lesions appeared throughout the monolayer, in which immunostaining for ZO-1 at cell boundaries became faint, diffuse, and discontinuous. Exposure to cytomix also was associated with “ruffling” of ZO-1 and occludin immunostaining. […]

[8] = test system: NO. production by Caco-2 cells; assay: NO. production (NO2- and NO3- in culture supernatants) by Caco-2 cells exposed to cytomix; type: cell-based, human
Procedure: (§1) Measurement of NO. production and iNOS gene expression. NO. production^21 was measured and RT-PCR ^22 for iNOS mRNA and 18S RNA were performed as described. The gels were captured using an imaging workstation (NucleoVision), and quantified with GelExpert™ 3.5. Relative expression of iNOS is reported after normalizing for 18S loading in FIG. 4B.
(§2) Accordingly, it was determined whether NAD^+ decreased the production of NO. (as assessed by measuring NO2^− and NO3^− in culture supernatants) by Caco-2 cells exposed to cytomix (similar study using RAW monocyte-like cells is not shown). […] Again, there was a biphasic response to NAD^+ treatment; provided maximal inhibition and higher doses inhibited less well. Thus, another inflammatory response, namely the induction of iNOS gene expression and the concomitant production of NO., is blocked by extracellular NAD^+ in both myeloid and epithelial cells.

[9] = test system: inducible nitric oxide synthase (iNOS) mRNA; assay: iNOS mRNA expression by RT-PCR in Caco-2 cells exposed to cytomix; type: cell-based, human; conditions: biphasic response
Procedure: as §1, §2

[10] = test system: occludin and ZO-1 in Caco-2 cells; assay: ZO-1 and occludin in NP-40-insoluble fraction, immunoprecipitation and Western blot, Caco-2 cells exposed to cytomix; type: cell-based, human

NC(=O)c1ccc[n+]([C@@H]2O[C@H](COP(=O)([O-])OP(=O)(O)OC[C@H]3O[C@@H](n4cnc5c(N)ncnc54)[C@H](O)[C@@H]3O)[C@@H](O)[C@H]2O)c1 [NAD^+, nicotinamide adenine dinucleotide]
cytomix-induced NF-κB activation ([1]; 1 μmol/L, nuclear extracts 4 h): no effect
nuclear levels of NF-κB ([1]; NAD+ alone, no cytomix): no effect
NF-κB DNA binding ([1]; cytomix, 10 or 100 μmol/L, nuclear extracts 4 h): clearly decreased
protection against cytomix-induced hyperpermeability ([2]; 10 and 100 μmol/L): statistically significant
cytomix-induced epithelial hyperpermeability ([2]; cytomix 24 or 48 h, graded concentrations, concentration-dependent): ameliorated
Epithelial permeability (FD4 flux) ([2]; monolayers incubated with NAD+ alone, no cytomix): unaffected
LPS-induced release of TNF-α [3]: partially blocked
increase in mucosal permeability to FD4 induced by LPS [4]: significantly ameliorated
nuclear localization of NF-κB ([5]; 1 μM): dramatically decreased
nuclear NF-κB levels ([5]; 100 μM): near baseline levels
mortality [6]: completely prevented mortality
staining of ZO-1 and occludin at cell-cell boundaries [7]: continuous staining
concentration giving maximal inhibition of NO. production ([8]; cytomix): 100 µmol/L
inhibition of NO. production ([8]; cytomix, 1000 μmol/L compared with 100 μmol/L): inhibition was decreased
cytomix-increased production of NO. ([8]; graded concentrations): inhibited in a concentration-dependent manner
cytomix-increased expression of iNOS mRNA [9]: blocked this effect
occludin and ZO-1 in NP-40-insoluble complexes ([10]; cytomix 48 h with 10 or 100 μmol/L): normal levels of these proteins were present

Nc1ncnc2c1ncn2[C@@H]1O[C@H](COP(=O)(O)OP(=O)(O)OC[C@H]2OC(O)[C@H](O)[C@@H]2O)[C@@H](O)[C@H]1O (some centres unmarked) [ADP-ribose]
expression of occludin ([10]; cytomix, co-incubation with 10 or 100 μmol/L): failed to preserve occludin expression

Nc1ncnc2c1ncn2[C@@H]1O[C@H](CO)[C@@H](O)[C@H]1O [Adenosine, adenosine, reference compound]
induction of hyperpermeability by cytomix ([2]; 10 μmol/L): no effect
decrease in NP-40-insoluble occludin or ZO-1 ([10]; cytomix 48 h with 10 μM): failed to prevent
